For series [1] the following is noted: Liquid; for mass density: 293.15 K, 101.33 kPa, Densimeter; for Normal boiling temperature: Ebulliometric method (Recirculating still).
Series [2] in a line: refractive index (Na D-line) (dimensionless). Conditions: 293.15 K; 101.33 kPa; Liquid; Standard Abbe refractometry.

Structures are written as SMILES. Numbers after ± are expanded uncertainties.

Turning to `COCCO` [2-methoxyethan-1-ol], in series [1], the mass density came to 964.74 ± 0.12 kg/m3 and the Normal boiling temperature was 124.48 ± 0.2 °C. Also, the refractive index in series [2] is reported as 1.40234 ± 0.00034.

Consider `C[S+](C)[O-]` [dimethyl sulfoxide], for which, in series [1], the mass density is reported as 1100.36 ± 0.14 kg/m3 and the Normal boiling temperature was 189.03 ± 0.2 °C. The refractive index in series [2] was found to be 1.47987 ± 0.00034.

As to `Cc1ccccc1` [toluene], in series [1], the mass density was 867.02 ± 0.11 kg/m3 and the Normal boiling temperature turned out to be 110.58 ± 0.2 °C. In addition, in series [2], the refractive index is listed as 1.49678 ± 0.00033.

Values taken from the NIST ThermoML archive (doi:10.1016/j.fluid.2014.04.025).
